Measured values as given in patent publication US20070135366A1, “Method for assessing cancerous state” (SUMITOMO CHEMICAL COMPANY, LIMITED., priority 2003, published 2007).

Legend:
[1] = tested on: Fibrillin2 gene expression in pancreatic cancer cell line PANC-1; assay: Effect of methylation inhibitor on expression of Fibrillin2 gene (Real Time PCR of mRNA-derived DNA) in PANC-1; format: cell-based, human; settings: added on first and third day after seeding, cells recovered on fourth day
Experimental: (§1) seven kinds of human-derived pancreatic cancer cell lines (BXPc3, HPAF-II, Capan-2, MiaPaCa-2, Hs766T, PANC-1 and HPAC) and immortal (normal) pancreatic ductal epithelial cells lines (HPDE-4/E6E7 and HPDE6-E6E7c7) were cultured to 70% confluent in an exclusively used medium, and thereafter, each cell was corrected. 1 ml of an ISOGEN solution (Nippon Gene) was mixed with collected each cell (wet weight about 100 mg), this was homogenized, and 0.2 ml of chloroform was added thereto to suspend them. After suspending, the mixture was centrifuged (4° C., 15000×g, 15 minutes) to recover the supernatant. […]
(§2) A reaction solution of PCR was used which was obtained by mixing 50 ng of a cDNA as a template, each 1 μl of two kinds of 10 pmol/μl aforementioned primer solution, 4 μl of 2.5 mM dNTP, 4 μl of 5 mM dUTP, 5 μl of 10×SYBR Green PCR Buffer, 6 μl of 25 mM MgCl2 and 0.3 μl of a 5U/μl thermos table DNA polymerase (AmpliTaq Gold), 0.5 μl of AmpEraseUNG and adding sterilized ultrapure water thereto to an amount of solution of 50 μl. […] When a DNA derived from mRNA of Fibrillin2 gene and GAPDH gene was amplified, after the reaction solution was retained at 95° C. for 10 minutes, Real Time PCR was performed at the conditions under which each cycle was 30 seconds at 95° C., 30 seconds at 59° C. and 30 seconds at 72° C. to quantitate Fibrillin2 gene and GAPDH gene.

[2] = tested on: Fibrillin2 gene expression in pancreatic cancer cell line HPAC; assay: Effect of methylation inhibitor on expression of Fibrillin2 gene (Real Time PCR of mRNA-derived DNA) in HPAC; format: cell-based, human; settings: added on first and third day after seeding, cells recovered on fourth day
Experimental: as §1, §2

Measured: DNA derived from a mRNA of Fibrillin2 gene (expression of Fibrillin2 gene)

Nc1ncn([C@H]2C[C@H](O)[C@@H](CO)O2)c(=O)n1 [5Aza-dC, 5-aza-2′-deoxytidine]
detected: [1]; PANC-1 cultured in the presence of 0.5 μM 5Aza-dC | [1]; PANC-1 cultured in the presence of 1 μM 5Aza-dC | [2]; HPAC cultured in the presence of 0.5 μM 5Aza-dC | [2]; HPAC cultured in the presence of 1 μM 5Aza-dC
